Source: patent publication US9518018B2, “3-alkoxy, thioalkyl and amino-4-amino-6-(substituted)picolinates and their use as herbicides” (Dow AgroSciences LLC, priority 2011, dated 2016)

System: desired test plant species
Assay: Foliar-applied postemergence herbicidal activity in direct seeded rice (Table 6)
Assay type: in vivo
Conditions: 21 DAA
Source text: Seeds or nutlets of the desired test plant species were planted in a soil matrix prepared by mixing a loam soil (43 percent silt, 19 percent clay, and 38 percent sand, with a pH of about 8.1 and an organic matter content of about 1.5 percent) and river sand in an 80 to 20 ratio. The soil matrix was contained in plastic pots with a surface area of 139.7 cm^2. When required to ensure good germination and healthy plants, a fungicide treatment and/or other chemical or physical treatment was applied. The plants were grown for 10-17 d in a greenhouse with an approximate 14-h photoperiod which was maintained at about 29° C. during the day and 26° C. during the night. Nutrients and water were added on a regular basis and supplemental lighting was provided with overhead metal halide 1000-Watt lamps as necessary. The plants were employed for testing when they reached the second or third true leaf stage. Treatments consisted of compounds 45, 34, and 66. Weighed amounts of technical compounds were placed in individual 25 mL glass vials and dissolved in 8 mL of 97:3 v/v acetone-DMSO to obtain stock solutions. […] The spray application solutions were prepared by removing 4 mL of the stock solution and diluting with 4 mL of 97:3 v/v acetone-DMSO and continued serial dilution to obtain 1⁄2×, 1⁄4×, 1⁄8×, and 1/16× rates of the high rate. Spray solutions were diluted to the appropriate final concentrations with the addition of 8 mL of an aqueous mixture of 1.875% (v/v) Agri-dex crop oil concentrate. The final 12-mL spray solutions each contained 1.25% (v/v) Agri-dex crop oil concentrate, 32.3% acetone, and 1.0% DMSO. Compound requirements are based upon a 12 mL application volume at a rate of 187 L/ha. Spray solutions were applied to the plant material with an overhead Mandel track sprayer equipped with […] nozzles calibrated to deliver 187 L/ha over an application area of 0.503 square meters (m^2) at a spray height of 18 inches ([…]) above average plant canopy height. Control plants were sprayed in the same manner with the solvent blank. The treated plants and control plants were placed in a greenhouse as described above and watered by sub-irrigation to prevent wash-off of the test compounds. After approximately 3 weeks, the condition of the test plants, compared with that of the untreated plants, was determined visually and scored on a scale of 0 to 100 percent where 0 corresponds to no injury and 100 corresponds to complete kill. By applying the well-accepted probit analysis as described by J. Berkson in Journal of the […], 48, 565 (1953) and by D. Finney in “Probit Analysis” Cambridge University Press (1952) or by plotting the mean data and fitting a logarithmic curve to the portion of the data where there was a dose response using Microsoft Excel®, the above data can be used to calculate GR50 and GR90 values, which are defined as growth reduction factors that correspond to the effective dose of herbicide required to kill or control 50 percent or 90 percent, respectively, of a target plant.

COC(=O)c1nc(-c2ccc(Cl)c(OC)c2F)c(F)c(N)c1OC [Compound 34]
Mean Visual Injury (%)-21 Days After Application AESSE (AESSE (Aeschynomene sensitiva, sensitive jointvetch), 4.38 g ae/ha): 100% | Mean Visual Injury (%)-21 Days After Application AESSE (AESSE (Aeschynomene sensitiva, sensitive jointvetch), 8.75 g ae/ha): 100% | Mean Visual Injury (%)-21 Days After Application AESSE (AESSE (Aeschynomene sensitiva, sensitive jointvetch), 17.5 g ae/ha): 100% | Mean Visual Injury (%)-21 Days After Application AESSE (AESSE (Aeschynomene sensitiva, sensitive jointvetch), 35 g ae/ha): 100% | Mean Visual Injury (%)-21 Days After Application AESSE (AESSE (Aeschynomene sensitiva, sensitive jointvetch), 70 g ae/ha): 100% | GR50 AESSE (AESSE (Aeschynomene sensitiva, sensitive jointvetch), dose to kill or control 50 percent): <4.38 g ae/ha | GR90 AESSE (AESSE (Aeschynomene sensitiva, sensitive jointvetch), dose to kill or control 90 percent): <4.38 g ae/ha | Mean Visual Injury (%)-21 Days After Application BRAPP (BRAPP (Brachiaria platyphylla, broadleaf signalgrass), 4.38 g ae/ha): 73% | Mean Visual Injury (%)-21 Days After Application BRAPP (BRAPP (Brachiaria platyphylla, broadleaf signalgrass), 8.75 g ae/ha): 77% | Mean Visual Injury (%)-21 Days After Application BRAPP (BRAPP (Brachiaria platyphylla, broadleaf signalgrass), 17.5 g ae/ha): 93% | Mean Visual Injury (%)-21 Days After Application BRAPP (BRAPP (Brachiaria platyphylla, broadleaf signalgrass), 35 g ae/ha): 92% | Mean Visual Injury (%)-21 Days After Application BRAPP (BRAPP (Brachiaria platyphylla, broadleaf signalgrass), 70 g ae/ha): 93% | GR50 BRAPP (BRAPP (Brachiaria platyphylla, broadleaf signalgrass), dose to kill or control 50 percent): <4.38 g ae/ha | GR90 BRAPP (BRAPP (Brachiaria platyphylla, broadleaf signalgrass), dose to kill or control 90 percent): 30.2 g ae/ha | Mean Visual Injury (%)-21 Days After Application CYPDI (CYPDI (Cyperus difformis, small-flower flatsedge), 4.38 g ae/ha): 87% | Mean Visual Injury (%)-21 Days After Application CYPDI (CYPDI (Cyperus difformis, small-flower flatsedge), 8.75 g ae/ha): 95% | Mean Visual Injury (%)-21 Days After Application CYPDI (CYPDI (Cyperus difformis, small-flower flatsedge), 17.5 g ae/ha): 100% | Mean Visual Injury (%)-21 Days After Application CYPDI (CYPDI (Cyperus difformis, small-flower flatsedge), 35 g ae/ha): 100% | Mean Visual Injury (%)-21 Days After Application CYPDI (CYPDI (Cyperus difformis, small-flower flatsedge), 70 g ae/ha): 100% | GR50 CYPDI (CYPDI (Cyperus difformis, small-flower flatsedge), dose to kill or control 50 percent): <4.38 g ae/ha | GR90 CYPDI (CYPDI (Cyperus difformis, small-flower flatsedge), dose to kill or control 90 percent): 5.8 g ae/ha | Mean Visual Injury (%)-21 Days After Application CYPES (CYPES (Cyperus esculentus, yellow nutsedge), 4.38 g ae/ha): 73% | Mean Visual Injury (%)-21 Days After Application CYPES (CYPES (Cyperus esculentus, yellow nutsedge), 8.75 g ae/ha): 73% | Mean Visual Injury (%)-21 Days After Application CYPES (CYPES (Cyperus esculentus, yellow nutsedge), 17.5 g ae/ha): 85% | Mean Visual Injury (%)-21 Days After Application CYPES (CYPES (Cyperus esculentus, yellow nutsedge), 35 g ae/ha): 95% | Mean Visual Injury (%)-21 Days After Application CYPES (CYPES (Cyperus esculentus, yellow nutsedge), 70 g ae/ha): 100% | GR50 CYPES (CYPES (Cyperus esculentus, yellow nutsedge), dose to kill or control 50 percent): <4.38 g ae/ha | GR90 CYPES (CYPES (Cyperus esculentus, yellow nutsedge), dose to kill or control 90 percent): 27.4 g ae/ha | Mean Visual Injury (%)-21 Days After Application CYPIR (CYPIR (Cyperus iria, rice flatsedge), 4.38 g ae/ha): 83% | Mean Visual Injury (%)-21 Days After Application CYPIR (CYPIR (Cyperus iria, rice flatsedge), 8.75 g ae/ha): 97% | Mean Visual Injury (%)-21 Days After Application CYPIR (CYPIR (Cyperus iria, rice flatsedge), 17.5 g ae/ha): 98% | Mean Visual Injury (%)-21 Days After Application CYPIR (CYPIR (Cyperus iria, rice flatsedge), 35 g ae/ha): 100% | Mean Visual Injury (%)-21 Days After Application CYPIR (CYPIR (Cyperus iria, rice flatsedge), 70 g ae/ha): 100% | GR50 CYPIR (CYPIR (Cyperus iria, rice flatsedge), dose to kill or control 50 percent): <4.38 g ae/ha | GR90 CYPIR (CYPIR (Cyperus iria, rice flatsedge), dose to kill or control 90 percent): 6.7 g ae/ha | Mean Visual Injury (%)-21 Days After Application ECHCG (ECHCG (Echinochloa crus-galli, barnyardgrass), 4.38 g ae/ha): 93% | Mean Visual Injury (%)-21 Days After Application ECHCG (ECHCG (Echinochloa crus-galli, barnyardgrass), 8.75 g ae/ha): 93% | Mean Visual Injury (%)-21 Days After Application ECHCG (ECHCG (Echinochloa crus-galli, barnyardgrass), 17.5 g ae/ha): 96% | Mean Visual Injury (%)-21 Days After Application ECHCG (ECHCG (Echinochloa crus-galli, barnyardgrass), 35 g ae/ha): 98% | Mean Visual Injury (%)-21 Days After Application ECHCG (ECHCG (Echinochloa crus-galli, barnyardgrass), 70 g ae/ha): 95% | GR50 ECHCG (ECHCG (Echinochloa crus-galli, barnyardgrass), dose to kill or control 50 percent): <4.38 g ae/ha | GR90 ECHCG (ECHCG (Echinochloa crus-galli, barnyardgrass), dose to kill or control 90 percent): <4.38 g ae/ha | Mean Visual Injury (%)-21 Days After Application ECHCO (ECHCO (Echinochloa colonum, junglerice), 4.38 g ae/ha): 70% | Mean Visual Injury (%)-21 Days After Application ECHCO (ECHCO (Echinochloa colonum, junglerice), 8.75 g ae/ha): 80% | Mean Visual Injury (%)-21 Days After Application ECHCO (ECHCO (Echinochloa colonum, junglerice), 17.5 g ae/ha): 92% | Mean Visual Injury (%)-21 Days After Application ECHCO (ECHCO (Echinochloa colonum, junglerice), 35 g ae/ha): 97% | Mean Visual Injury (%)-21 Days After Application ECHCO (ECHCO (Echinochloa colonum, junglerice), 70 g ae/ha): 98% | GR50 ECHCO (ECHCO (Echinochloa colonum, junglerice), dose to kill or control 50 percent): <4.38 g ae/ha | GR90 ECHCO (ECHCO (Echinochloa colonum, junglerice), dose to kill or control 90 percent): 18.6 g ae/ha | Mean Visual Injury (%)-21 Days After Application LEFCH (LEFCH (Leptochloa chinensis, Chinese sprangletop), 4.38 g ae/ha): 0% | Mean Visual Injury (%)-21 Days After Application LEFCH (LEFCH (Leptochloa chinensis, Chinese sprangletop), 8.75 g ae/ha): 17% | Mean Visual Injury (%)-21 Days After Application LEFCH (LEFCH (Leptochloa chinensis, Chinese sprangletop), 17.5 g ae/ha): 30% | Mean Visual Injury (%)-21 Days After Application LEFCH (LEFCH (Leptochloa chinensis, Chinese sprangletop), 35 g ae/ha): 40% | Mean Visual Injury (%)-21 Days After Application LEFCH (LEFCH (Leptochloa chinensis, Chinese sprangletop), 70 g ae/ha): 37% | GR50 LEFCH (LEFCH (Leptochloa chinensis, Chinese sprangletop), dose to kill or control 50 percent): >70 g ae/ha | GR90 LEFCH (LEFCH (Leptochloa chinensis, Chinese sprangletop), dose to kill or control 90 percent): >70 g ae/ha | Mean Visual Injury (%)-21 Days After Application ORYSA ‘Clearfield 171’ (ORYSA (Oryza sativa ‘Clearfield 171’, rice), 4.38 g ae/ha): 0% | Mean Visual Injury (%)-21 Days After Application ORYSA ‘Clearfield 171’ (ORYSA (Oryza sativa ‘Clearfield 171’, rice), 8.75 g ae/ha): 3% | Mean Visual Injury (%)-21 Days After Application ORYSA ‘Clearfield 171’ (ORYSA (Oryza sativa ‘Clearfield 171’, rice), 17.5 g ae/ha): 12% | Mean Visual Injury (%)-21 Days After Application ORYSA ‘Clearfield 171’ (ORYSA (Oryza sativa ‘Clearfield 171’, rice), 35 g ae/ha): 23% | Mean Visual Injury (%)-21 Days After Application ORYSA ‘Clearfield 171’ (ORYSA (Oryza sativa ‘Clearfield 171’, rice), 70 g ae/ha): 22% | GR50 ORYSA ‘Clearfield 171’ (ORYSA (Oryza sativa ‘Clearfield 171’, rice), dose to kill or control 50 percent): >70 g ae/ha | GR90 ORYSA ‘Clearfield 171’ (ORYSA (Oryza sativa ‘Clearfield 171’, rice), dose to kill or control 90 percent): >70 g ae/ha | Mean Visual Injury (%)-21 Days After Application ORYSA ‘Wells’ (ORYSA (Oryza sativa ‘Wells’, rice), 4.38 g ae/ha): 0% | Mean Visual Injury (%)-21 Days After Application ORYSA ‘Wells’ (ORYSA (Oryza sativa ‘Wells’, rice), 8.75 g ae/ha): 0% | Mean Visual Injury (%)-21 Days After Application ORYSA ‘Wells’ (ORYSA (Oryza sativa ‘Wells’, rice), 17.5 g ae/ha): 3% | Mean Visual Injury (%)-21 Days After Application ORYSA ‘Wells’ (ORYSA (Oryza sativa ‘Wells’, rice), 35 g ae/ha): 8% | Mean Visual Injury (%)-21 Days After Application ORYSA ‘Wells’ (ORYSA (Oryza sativa ‘Wells’, rice), 70 g ae/ha): 7% | GR50 ORYSA ‘Wells’ (ORYSA (Oryza sativa ‘Wells’, rice), dose to kill or control 50 percent): >70 g ae/ha | GR90 ORYSA ‘Wells’ (ORYSA (Oryza sativa ‘Wells’, rice), dose to kill or control 90 percent): >70 g ae/ha | Mean Visual Injury (%)-21 Days After Application SCPJU (SCPJU (Scirpus juncoides, Japanese bulrush), 4.38 g ae/ha): 100% | Mean Visual Injury (%)-21 Days After Application SCPJU (SCPJU (Scirpus juncoides, Japanese bulrush), 8.75 g ae/ha): 100% | Mean Visual Injury (%)-21 Days After Application SCPJU (SCPJU (Scirpus juncoides, Japanese bulrush), 17.5 g ae/ha): 100% | Mean Visual Injury (%)-21 Days After Application SCPJU (SCPJU (Scirpus juncoides, Japanese bulrush), 35 g ae/ha): 100% | Mean Visual Injury (%)-21 Days After Application SCPJU (SCPJU (Scirpus juncoides, Japanese bulrush), 70 g ae/ha): 100% | GR50 SCPJU (SCPJU (Scirpus juncoides, Japanese bulrush), dose to kill or control 50 percent): <4.38 g ae/ha | GR90 SCPJU (SCPJU (Scirpus juncoides, Japanese bulrush), dose to kill or control 90 percent): <4.38 g ae/ha | Mean Visual Injury (%)-21 Days After Application SEBEX (SEBEX (Sesbania exaltata, hemp sesbania), 4.38 g ae/ha): 100% | Mean Visual Injury (%)-21 Days After Application SEBEX (SEBEX (Sesbania exaltata, hemp sesbania), 8.75 g ae/ha): 100% | Mean Visual Injury (%)-21 Days After Application SEBEX (SEBEX (Sesbania exaltata, hemp sesbania), 17.5 g ae/ha): 100% | Mean Visual Injury (%)-21 Days After Application SEBEX (SEBEX (Sesbania exaltata, hemp sesbania), 35 g ae/ha): 100% | Mean Visual Injury (%)-21 Days After Application SEBEX (SEBEX (Sesbania exaltata, hemp sesbania), 70 g ae/ha): 100% | GR50 SEBEX (SEBEX (Sesbania exaltata, hemp sesbania), dose to kill or control 50 percent): <4.38 g ae/ha | GR90 SEBEX (SEBEX (Sesbania exaltata, hemp sesbania), dose to kill or control 90 percent): <4.38 g ae/ha
